The values that follow come from article PMC6433934, “Preclinical Evaluation of Bispecific Adaptor Molecule Controlled Folate Receptor CAR-T Cell Therapy With Special Focus on Pediatric Malignancies” (Frontiers in Oncology, 2019).

For the data set, the system named is MDA-MB-231 tumors. The data set can be described thus: EC17 dose finding safety study, tumor-bearing mice. The following applies: for higher IFNγ production in mouse plasma vs CAR-T cells only: all EC17 regimens. The data set is classed as in vivo, NSG mice. The procedure:
All animal care and use were performed according to NIH guidelines and in compliance with protocols approved by the Purdue University Animal Use and Care Committee. Female 4 to 5-weeks-old NOD/SCID gamma (NSG™) mice (stock number: 005557) were purchased from The Jackson Laboratory (Bar Harbor, ME). Unless specifically indicated, all animals were maintained on a FA-deficient diet (TestDiet, St. Louis, MO) upon arrival and throughout the study. To establish subcutaneous xenografts, MDA-MB-231 and HOS-FRα were implanted in the right flank region at 2.5 × 10^6 and 1 × 10^6 cells per animal, respectively. For intravenous xenografts, THP1-FRβ cells were inoculated at 5 × 10^6 cells per animal. Subcutaneous tumors were measured 2–3 times per week with a caliper and calculated using the ellipsoidal formula (length x width^2)/2. […] All animal doses (CAR-T cells, EC17, sodium fluorescein) were given intravenously.
In a therapeutic setting, EC17 CAM can theoretically be given before or after CAR-T cell injection ([33]). For all intended purposes here, we administered the first dose of EC17 2–3.5 days after CAR-T cells to allow for an observation period of human T cells in tumor-bearing mice. Two batches of unsorted E2-CAR-T cells (23% or 39% EGFRt+, 1:1 CD4/CD8) were used for in vivo studies. On the day of infusion for each experiment (day 0), frozen CAR-T cells were quickly thawed at 37°C, washed 2x with Dulbecco's 1X PBS (pH 7.4) and injected into the tail veil at desired EGFRt+ E2-CAR-T cell doses. In addition, a small aliquot of CAR-T cells was analyzed by flow cytometry for CD4 to CD8 ratio and differentiation status of CAR-T cells. On the first day of EC17 dose, tumor-bearing animals were randomly assigned into groups according to their tumor sizes or the same number of days post intravenous implantation (i.e., THP1-FRβ).
For MDA-MB-231 studies, mice received a high dose (~10 million) of a “clinical facsimile” of E2-CAR-T cells (~39% EGFRt+) with a low differentiation profile. Two days later, we started them with 3 different treatment regimens of EC17 at an average tumor size of ~293 ± 39 mm^3. The EC17 dosing was given once-a-week (SIW) at 500 nmol/kg on Mondays, or as escalating doses of 5, 50, or 100, and 500 or 1,000 nmol/kg on Monday, Thursday, and Monday with a 6 day break in-between cycles. Control mice were left untreated (received CAR-T cells but no EC17). For comparison, a cohort of tumor-free littermates also received the same number of CAR-T cells without or with EC17 SIW at 500 nmol/kg. To study the effect of high dietary folate, two sets of NSG mice were placed on either a FA-replete diet (4 mg/kg, Envigo, Indianapolis, IN) or a FA-deficient diet (TestDiet, St. Louis, MO) upon arrival. On day 0, both sets of the mice received ~10 million of the same “clinical facsimile” CAR-T cells followed by no EC17 or EC17 SIW at 500 nmol/kg starting on day 3. On the first day of EC17 administration, MDA-MB-231 tumors size averaged around ~549 ± 184 mm^3 (280–918 mm^3) in FA-replete mice, and ~559 ± 165 mm^3 (356–961 mm^3) in FA-deficient mice.
Depending on the CAR-T cell dose and how EC17 is administered, tumor-bearing mice receiving FITC-specific CAR-T cells can experience severe CRS and varying degrees of body weight loss ([27], [33], [34]). […] On the days immediately following each EC17 dose, animals were scored and rescue agents such as sodium fluorescein, folic acid and leucovorin were used to mitigate CRS toxicity ([33]). […]

`Nc1nc2ncc(CNc3ccc(C(=O)NC(CCC(=O)NCCNC(=S)Nc4ccc(-c5c6ccc(=O)cc-6oc6cc(O)ccc56)c(C(=O)O)c4)C(=O)O)cc3)nc2c(=O)[nH]1` (centres unmarked) [EC17, FA-(γ)-ethylenediamine-FITC] came in with a cures (EC17-treated cohorts (SIW 500, 5/50/500, 5/100/1000 nmol/kg), ~10 million E2-CAR-T cells) of 100%. The “higher IFNγ production in mouse plasma vs CAR-T cells only” value (day 11, ~20 h after previous EC17 dose, ~10 million E2-CAR-T cells) is ~ 30 x and the “higher IFNγ production in mouse plasma vs CAR-T cells only” value (day 12, ~42 h after previous EC17 dose, ~10 million E2-CAR-T cells) is on record as ~ 10 x. Further, where the note is “tumor-bearing animals, ~10 million E2-CAR-T cells plus EC17, last measurement”, the “persistence of CAR-T cells in mouse blood” value is listed as “up to 54 days”. Further, the CRS grade (tumor-bearing, ~10 million E2-CAR-T cells, continued EC17 dosing independent of the regimen, 0–5 scale) is listed as 2-3.
